The source of these data is ChEMBL document CHEMBL4145544, “Discovery and optimization of 1-(1H-indol-1-yl)ethanone derivatives as CBP/EP300 bromodomain inhibitors for the treatment of castration-resistant prostate cancer” (Eur J Med Chem, 2018).

SMILES strings stand for the structures.

In test [1] the target is CREB-binding protein (Homo sapiens, UniProt Q92793). Nature of the test: Inhibition of biotinylated-H4KAc4 binding to human His6-tagged CBP (R1081 to G1197 residues) expressed in Escherichia coli BL21(DE3) after 2.5 hrs by luminescence-based AlphaScreen assay. For orientation: Bead proximity is the source of the signal in Alpha formats.
Sequence of CREB-binding protein (Q92793 whole entry, the tested form may be a part): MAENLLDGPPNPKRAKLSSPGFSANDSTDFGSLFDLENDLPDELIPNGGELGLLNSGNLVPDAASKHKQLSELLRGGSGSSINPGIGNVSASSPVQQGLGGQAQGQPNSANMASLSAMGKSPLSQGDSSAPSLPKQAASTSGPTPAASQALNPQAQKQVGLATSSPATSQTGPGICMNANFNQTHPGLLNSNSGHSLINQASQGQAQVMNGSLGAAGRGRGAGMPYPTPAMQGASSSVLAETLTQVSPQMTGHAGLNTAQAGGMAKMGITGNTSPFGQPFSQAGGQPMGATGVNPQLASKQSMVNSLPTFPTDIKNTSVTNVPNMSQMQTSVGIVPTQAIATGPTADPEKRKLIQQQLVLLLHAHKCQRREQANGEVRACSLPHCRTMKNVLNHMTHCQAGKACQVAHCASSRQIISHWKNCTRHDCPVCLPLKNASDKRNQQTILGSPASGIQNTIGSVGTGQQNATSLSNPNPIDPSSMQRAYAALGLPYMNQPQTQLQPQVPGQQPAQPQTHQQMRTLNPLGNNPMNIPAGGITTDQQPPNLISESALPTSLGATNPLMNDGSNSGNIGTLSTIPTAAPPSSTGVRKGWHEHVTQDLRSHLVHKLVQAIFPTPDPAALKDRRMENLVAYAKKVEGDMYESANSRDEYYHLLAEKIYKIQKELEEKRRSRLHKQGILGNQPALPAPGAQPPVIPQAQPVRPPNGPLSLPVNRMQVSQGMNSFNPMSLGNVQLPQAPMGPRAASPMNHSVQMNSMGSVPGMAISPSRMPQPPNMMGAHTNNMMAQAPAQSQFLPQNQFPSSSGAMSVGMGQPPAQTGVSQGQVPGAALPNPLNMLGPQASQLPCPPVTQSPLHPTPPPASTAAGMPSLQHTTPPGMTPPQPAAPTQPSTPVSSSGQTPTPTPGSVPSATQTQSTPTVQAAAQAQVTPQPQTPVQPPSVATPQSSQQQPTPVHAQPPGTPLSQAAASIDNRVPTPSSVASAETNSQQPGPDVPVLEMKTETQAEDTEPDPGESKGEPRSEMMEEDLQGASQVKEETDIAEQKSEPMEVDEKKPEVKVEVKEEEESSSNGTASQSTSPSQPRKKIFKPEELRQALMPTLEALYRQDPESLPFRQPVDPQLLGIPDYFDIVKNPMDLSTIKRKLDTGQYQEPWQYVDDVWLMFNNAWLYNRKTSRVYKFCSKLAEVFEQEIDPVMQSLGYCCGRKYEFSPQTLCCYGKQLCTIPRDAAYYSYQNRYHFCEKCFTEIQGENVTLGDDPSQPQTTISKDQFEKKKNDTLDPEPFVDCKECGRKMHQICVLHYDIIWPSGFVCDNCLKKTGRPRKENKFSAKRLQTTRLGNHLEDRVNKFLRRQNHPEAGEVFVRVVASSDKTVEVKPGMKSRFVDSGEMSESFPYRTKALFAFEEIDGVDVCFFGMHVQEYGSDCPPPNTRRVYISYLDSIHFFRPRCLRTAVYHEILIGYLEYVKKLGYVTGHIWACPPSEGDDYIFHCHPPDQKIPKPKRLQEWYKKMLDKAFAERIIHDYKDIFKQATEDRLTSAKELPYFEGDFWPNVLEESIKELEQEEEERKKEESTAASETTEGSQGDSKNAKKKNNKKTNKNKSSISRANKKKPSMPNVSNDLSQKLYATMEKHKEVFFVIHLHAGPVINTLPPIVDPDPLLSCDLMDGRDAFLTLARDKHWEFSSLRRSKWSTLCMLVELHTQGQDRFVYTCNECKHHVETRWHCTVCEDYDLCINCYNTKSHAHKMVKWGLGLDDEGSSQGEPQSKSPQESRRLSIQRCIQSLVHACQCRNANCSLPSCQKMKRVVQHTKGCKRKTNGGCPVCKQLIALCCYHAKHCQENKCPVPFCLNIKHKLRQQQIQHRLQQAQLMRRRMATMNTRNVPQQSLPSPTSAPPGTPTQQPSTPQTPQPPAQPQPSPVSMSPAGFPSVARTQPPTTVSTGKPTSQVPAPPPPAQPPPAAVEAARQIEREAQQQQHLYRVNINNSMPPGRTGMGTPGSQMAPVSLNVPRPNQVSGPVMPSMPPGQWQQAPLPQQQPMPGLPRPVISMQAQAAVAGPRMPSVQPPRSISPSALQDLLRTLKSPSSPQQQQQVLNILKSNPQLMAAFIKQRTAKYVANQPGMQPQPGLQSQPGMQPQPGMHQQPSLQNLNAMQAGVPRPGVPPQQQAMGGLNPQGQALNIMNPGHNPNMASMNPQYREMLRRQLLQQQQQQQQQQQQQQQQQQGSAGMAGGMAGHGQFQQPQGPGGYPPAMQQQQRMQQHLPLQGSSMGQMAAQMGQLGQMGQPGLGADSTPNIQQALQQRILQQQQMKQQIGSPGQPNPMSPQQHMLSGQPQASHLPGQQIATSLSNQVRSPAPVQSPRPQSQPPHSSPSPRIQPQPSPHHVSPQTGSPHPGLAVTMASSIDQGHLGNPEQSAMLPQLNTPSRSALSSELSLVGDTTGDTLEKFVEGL
Test [2] addresses Bromodomain adjacent to zinc finger domain protein 2B (Homo sapiens, UniProt Q9UIF8). The test is described as follows: Inhibition of biotinylated-H4KAc4 binding to human His6-tagged BAZ2B (S1858 to S1972 residues) expressed in Escherichia coli BL21(DE3) at 50 uM after 2.5 hrs by luminescence-based AlphaScreen assay relative to control.
Test [3] has as its target Bromodomain-containing protein 4 (Homo sapiens, UniProt O60885). The test is described as follows: Inhibition of biotinylated-H4KAc4 binding to human His6-tagged BRD4 bromodomain-1 (N44 to E168 residues) expressed in Escherichia coli BL21(DE3) at 50 uM after 2.5 hrs by luminescence-based AlphaScreen assay relative to control.
The target of test [4] is T1, ATPase family AAA domain-containing protein 2 (Homo sapiens) (UniProt Q6PL18).
T1 sequence (whole entry): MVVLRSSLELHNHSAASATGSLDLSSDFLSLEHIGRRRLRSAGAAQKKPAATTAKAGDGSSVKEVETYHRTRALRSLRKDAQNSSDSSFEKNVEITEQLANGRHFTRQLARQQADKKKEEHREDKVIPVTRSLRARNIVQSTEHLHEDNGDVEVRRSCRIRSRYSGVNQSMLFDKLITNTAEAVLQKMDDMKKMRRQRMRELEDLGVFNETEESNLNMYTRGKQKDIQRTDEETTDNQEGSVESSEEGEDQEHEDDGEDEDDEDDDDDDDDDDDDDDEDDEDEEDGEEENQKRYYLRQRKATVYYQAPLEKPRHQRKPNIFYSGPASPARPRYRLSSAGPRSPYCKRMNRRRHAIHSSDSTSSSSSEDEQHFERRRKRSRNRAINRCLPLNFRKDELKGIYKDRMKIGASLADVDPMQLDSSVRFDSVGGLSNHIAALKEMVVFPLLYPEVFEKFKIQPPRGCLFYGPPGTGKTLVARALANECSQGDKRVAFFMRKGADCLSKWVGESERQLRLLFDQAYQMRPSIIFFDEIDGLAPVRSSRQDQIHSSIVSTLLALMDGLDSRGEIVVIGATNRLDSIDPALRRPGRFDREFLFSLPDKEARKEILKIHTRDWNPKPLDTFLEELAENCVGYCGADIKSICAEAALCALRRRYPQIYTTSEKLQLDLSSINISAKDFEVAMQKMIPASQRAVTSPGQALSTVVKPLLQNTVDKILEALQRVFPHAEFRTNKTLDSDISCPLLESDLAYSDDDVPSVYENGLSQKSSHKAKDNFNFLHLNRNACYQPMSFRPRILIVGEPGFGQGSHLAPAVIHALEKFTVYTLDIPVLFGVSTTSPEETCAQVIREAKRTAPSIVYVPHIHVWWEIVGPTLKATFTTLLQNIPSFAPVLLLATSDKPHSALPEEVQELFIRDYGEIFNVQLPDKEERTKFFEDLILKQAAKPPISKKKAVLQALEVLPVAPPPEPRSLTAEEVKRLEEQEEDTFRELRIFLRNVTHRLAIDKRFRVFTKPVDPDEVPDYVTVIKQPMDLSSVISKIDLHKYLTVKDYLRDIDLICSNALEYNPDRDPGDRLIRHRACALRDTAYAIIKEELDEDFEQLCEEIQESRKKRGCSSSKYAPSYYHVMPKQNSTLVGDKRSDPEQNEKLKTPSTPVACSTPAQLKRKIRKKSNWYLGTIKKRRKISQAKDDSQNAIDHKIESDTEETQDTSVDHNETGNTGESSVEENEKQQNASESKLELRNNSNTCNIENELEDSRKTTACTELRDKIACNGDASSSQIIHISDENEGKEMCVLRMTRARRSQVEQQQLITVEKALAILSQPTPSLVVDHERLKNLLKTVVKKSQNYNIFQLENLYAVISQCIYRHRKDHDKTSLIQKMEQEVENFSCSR
Nature of the test: Inhibition of biotinylated-H4KAc4 binding to human His6-tagged ATAD2 expressed in Escherichia coli BL21(DE3) at 50 uM after 2.5 hrs by luminescence-based AlphaScreen assay relative to control.

Sequence of Bromodomain adjacent to zinc finger domain protein 2B (Q9UIF8 whole entry, the tested form may be a part): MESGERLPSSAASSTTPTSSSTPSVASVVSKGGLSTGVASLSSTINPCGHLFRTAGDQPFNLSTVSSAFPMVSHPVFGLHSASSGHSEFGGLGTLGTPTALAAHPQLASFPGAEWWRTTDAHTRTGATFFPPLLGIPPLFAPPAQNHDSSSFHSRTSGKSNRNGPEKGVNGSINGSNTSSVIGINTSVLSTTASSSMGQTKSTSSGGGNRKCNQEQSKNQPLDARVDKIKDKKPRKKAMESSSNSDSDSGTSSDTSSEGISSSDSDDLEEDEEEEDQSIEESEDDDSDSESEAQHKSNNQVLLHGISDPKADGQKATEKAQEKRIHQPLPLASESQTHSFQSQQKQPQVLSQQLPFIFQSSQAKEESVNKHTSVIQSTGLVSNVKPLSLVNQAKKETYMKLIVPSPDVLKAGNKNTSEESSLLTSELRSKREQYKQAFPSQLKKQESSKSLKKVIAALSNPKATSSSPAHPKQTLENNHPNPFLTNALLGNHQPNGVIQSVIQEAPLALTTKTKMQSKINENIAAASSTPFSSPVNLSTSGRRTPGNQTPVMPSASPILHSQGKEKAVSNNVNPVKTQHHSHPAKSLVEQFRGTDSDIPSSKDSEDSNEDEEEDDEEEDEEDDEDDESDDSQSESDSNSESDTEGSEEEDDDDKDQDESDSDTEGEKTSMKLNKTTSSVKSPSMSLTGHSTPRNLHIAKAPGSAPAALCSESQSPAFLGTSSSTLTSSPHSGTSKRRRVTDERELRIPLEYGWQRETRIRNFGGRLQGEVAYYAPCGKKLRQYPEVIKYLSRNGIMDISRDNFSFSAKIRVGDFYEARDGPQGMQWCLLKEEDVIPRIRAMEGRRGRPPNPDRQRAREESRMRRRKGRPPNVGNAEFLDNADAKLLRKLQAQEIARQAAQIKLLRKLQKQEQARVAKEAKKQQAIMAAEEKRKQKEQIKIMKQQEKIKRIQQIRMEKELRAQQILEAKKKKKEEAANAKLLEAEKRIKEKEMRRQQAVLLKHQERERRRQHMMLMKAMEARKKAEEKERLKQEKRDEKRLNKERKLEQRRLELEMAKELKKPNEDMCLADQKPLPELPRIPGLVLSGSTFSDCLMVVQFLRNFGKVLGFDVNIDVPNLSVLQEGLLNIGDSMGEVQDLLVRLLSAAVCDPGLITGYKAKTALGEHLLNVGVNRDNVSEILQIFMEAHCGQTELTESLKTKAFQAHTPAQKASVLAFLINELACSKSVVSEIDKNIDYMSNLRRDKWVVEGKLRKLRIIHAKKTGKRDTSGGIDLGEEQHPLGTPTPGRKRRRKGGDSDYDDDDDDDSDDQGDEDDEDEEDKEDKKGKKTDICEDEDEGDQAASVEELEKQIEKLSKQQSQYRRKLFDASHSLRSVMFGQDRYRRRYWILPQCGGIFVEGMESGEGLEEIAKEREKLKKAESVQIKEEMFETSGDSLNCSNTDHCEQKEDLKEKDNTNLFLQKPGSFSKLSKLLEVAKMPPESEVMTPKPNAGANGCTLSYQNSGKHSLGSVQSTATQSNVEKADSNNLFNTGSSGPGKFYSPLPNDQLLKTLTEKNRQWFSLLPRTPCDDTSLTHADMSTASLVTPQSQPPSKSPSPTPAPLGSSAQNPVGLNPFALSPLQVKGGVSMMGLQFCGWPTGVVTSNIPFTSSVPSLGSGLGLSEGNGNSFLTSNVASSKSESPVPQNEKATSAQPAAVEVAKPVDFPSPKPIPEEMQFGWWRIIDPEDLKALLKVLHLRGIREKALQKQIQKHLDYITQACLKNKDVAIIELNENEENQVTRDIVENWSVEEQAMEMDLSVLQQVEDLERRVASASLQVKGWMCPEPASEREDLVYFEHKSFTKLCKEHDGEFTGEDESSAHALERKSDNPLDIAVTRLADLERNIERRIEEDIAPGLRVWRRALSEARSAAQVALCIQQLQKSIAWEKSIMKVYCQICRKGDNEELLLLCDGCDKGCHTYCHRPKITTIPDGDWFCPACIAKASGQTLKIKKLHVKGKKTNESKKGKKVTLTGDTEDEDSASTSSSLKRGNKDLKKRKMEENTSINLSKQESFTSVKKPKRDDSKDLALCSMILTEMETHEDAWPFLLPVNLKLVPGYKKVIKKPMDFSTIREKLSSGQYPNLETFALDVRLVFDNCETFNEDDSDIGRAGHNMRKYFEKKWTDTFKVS

For the molecule `CC(=O)n1cc(C(=O)Nc2cc(C(=O)O)cc(-c3cncc(C)c3)c2)c2ccccc21`, in test [1], the IC50 (as a rule, the concentration that gives 50% inhibition) was determined as 1.69 µM.
For `CC(=O)c1nn(-c2ccccc2)cc1C(=O)c1ccccc1`, the values for the inhibition in test [2], in test [3] and in test [4] were 21%, 27% and 35%, respectively. The molecule also had an IC50 in test [1] of more than 50 µM.
In test [1], `CC(=O)n1cc(C(=O)Nc2cc(C(=O)O)cc(-c3cccc(F)c3)c2)c2ccccc21` returned an IC50 of 3.52 µM.
In test [1], `COc1ccc2c(c1)c(C(=O)Nc1cc(C(=O)O)cc(-c3ccc4c(c3)OCCO4)c1)cn2C(C)=O` displayed an IC50 of 0.69 µM.
Still for that read-out and setting: for `CC(=O)n1cc(C(=O)Nc2cc(C(=O)O)ccc2NC2CCCCCC2)c2ccccc21` the value was 1.67 µM.
In the case of `CCCOc1ccc2c(c1)c(C(=O)Nc1cc(C(=O)O)cc(-c3ccco3)c1)cn2C(C)=O`, the IC50 in test [1] came out at 26.2 µM.
On to `CC(=O)n1cc(C(=O)Nc2cc(C(=O)O)cc(C3CC3)c2)c2ccccc21`, for which, in test [1], the IC50 turned out to be 2.74 µM.
In the case of `CC(=O)c1coc2c1cc(O)c1ccccc12`, the inhibition (commonly the change of the read-out against control, counted positive when it falls) turned out to be 36% in test [2], 51% in test [3] and 55% in test [4]. The molecule also registered an IC50 in test [1] of 41.4 µM.
`CC(=O)n1cc(C(=O)Nc2cc(C(=O)O)ccc2NC2CCCC2)c2ccccc21` came in with an IC50 in test [1] of 1.89 µM.
Turning to `Cn1nc(-c2ccc(Cl)cc2)c2ccccc2c1=O`, the inhibition in test [2] came to 34%; in test [3] it was 57%; in test [4], 49%. In test [1], this molecule registered an IC50 of more than 50 µM.
In test [1], `CC(=O)n1cc(C(=O)Nc2cc(C(=O)O)ccc2NCc2ccccc2)c2ccccc21` gave an IC50 of 4.11 µM.
Still for that read-out and setting: for `CC(=O)n1cc(C(=O)Nc2cc(C(=O)O)cc(-c3ccc4c(cnn4C)c3)c2)c2ccccc21` the value was 1 µM.
Consider `CC(=O)Nc1ccc2c(c1)c1ccccc1n2C(C)=O`, for which the values for the inhibition in test [2], in test [3] and in test [4] were 10%, -3% and 4%, respectively. Also, the half-maximal inhibitory concentration (IC50) in test [1] was more than 50 µM.
The molecule `CC(=O)c1cccc(NC(=O)c2cn(C(C)=O)c3ccccc23)c1` had an IC50 in test [1] of 25.4 µM.
Still for that read-out and setting: then `CC(=O)c1cn(CC(=O)N2CCC(C(=O)O)CC2)c2ccccc12`, with 13.6 µM.
With `Nc1c(Nc2ccccc2)c2ccccc2oc1=O`, the inhibition in test [2] amounted to 32%; in test [3], 8%; in test [4], 32%. In addition, the IC50 in test [1] is more than 50 µM.
On to `CCOC(=O)CCn1cc(C(C)=O)c2ccccc21`, for which the IC50 in test [1] was 39.6 µM.
With `CC(=O)c1nn(-c2ccccc2)c(C)c1C(C)=O`, the results for the inhibition in test [2], in test [3] and in test [4] were 6%, 5% and 19%, respectively. In test [1], the IC50 is more than 50 µM.
On to `CC(=O)n1c(C#N)nc2ccccc21`, for which the inhibition in test [2] turned out to be 24%; in test [3], 20%; in test [4] it was 29%. Further, the IC50 in test [1] is more than 50 µM.
In the case of `CC(=O)c1cn(CC(=O)N2CCC[C@H](C(=O)O)C2)c2ccccc12`, the IC50 in test [1] turned out to be 6.8 µM.
Regarding `COC(=O)C1CCN(C(=O)Cn2cc(C(C)=O)c3ccccc32)CC1`, the IC50 in test [1] worked out at 19.8 µM.
`O=C1N=CC(c2cccc([N+](=O)[O-])c2)c2ccccc21` (stereo unspecified): the inhibition in test [2] came to 59%; in test [3] it was 23%; in test [4], 87%. Besides, the IC50 in test [1] is more than 50 µM.
Take `CC(=O)n1cc(C(=O)Nc2cc(C(=O)O)ccc2NCC2CC2)c2ccccc21`: the half-maximal inhibitory concentration (IC50) in test [1] worked out at 21.6 µM.
For `CC(=O)OCc1cn(C(C)=O)c2ccccc12`, the inhibition in test [2] is 10%; in test [3] it was 17%; in test [4], 32%. In test [1], this molecule showed an IC50 of more than 50 µM.
In test [1], `CC(=O)n1cc(C(=O)Nc2cc(C(=O)O)ccc2NCC(C)C)c2ccccc21` yielded an IC50 of 2.33 µM.
On the same count and under the same terms, for `CC(=O)n1cc(C(=O)Nc2cc(C(=O)O)cc(-c3ccco3)c2)c2cc(O)ccc21` the value was 0.17 µM.
Same read-out and setting: for `CC(=O)n1cc(C(=O)Nc2cc(CC(C)C)cc(C(=O)O)c2)c2ccccc21` the value was 3.39 µM; for `CC(=O)n1cc(C(=O)Nc2cc(C(=O)O)cc(-c3cccc(Cl)c3)c2)c2ccccc21`, 1.44 µM.
In the case of `CC(=O)n1cc(C(=O)Nc2cc(C(=O)O)cc(-c3cc4ccccc4o3)c2)c2ccccc21`, the IC50 in test [1] was found to be 2.81 µM.
Molecule `CC(=O)n1cc(C(=O)Nc2cc(C(=O)O)cc(C3CCCCC3)c2)c2ccccc21` had an IC50 in test [1] of 2.48 µM.
In test [1], `CC(=O)n1cc(C(=O)Nc2cc(C(=O)O)cc(-c3cccc(C(F)(F)F)c3)c2)c2ccccc21` registered an IC50 of 4.05 µM.
Still for that read-out and setting: for `CCOc1ccc2c(c1)c(C(=O)Nc1cc(C(=O)O)cc(-c3ccco3)c1)cn2C(C)=O` the value was 3.89 µM.
Still for that read-out and setting: then `CC(=O)n1cc(C(=O)Nc2cc(C(=O)O)ccc2NC2CC2)c2ccccc21`, with 4.84 µM.
On the same count and under the same terms, then `CC(=O)NCCNC(=O)c1cn(C(C)=O)c2ccccc12`, with 33.8 µM; and `CCc1cc(NC(=O)c2cn(C(C)=O)c3ccccc23)cc(C(=O)O)c1`, with 2.8 µM.
As for `CC(=O)n1cc(C(=O)Nc2cc(C(=O)O)ccc2NCC2CCCCC2)c2ccccc21`, the IC50 in test [1] came out at 2.33 µM.
For `CC(=O)n1cc(C(=O)Nc2cc(Br)cc(C(=O)O)c2)c2ccccc21`, the IC50 in test [1] is 4.7 µM.
Still for that read-out and setting: then `COc1cccc(-c2cc(NC(=O)c3cn(C(C)=O)c4ccccc34)cc(C(=O)O)c2)c1`, with 2.07 µM.
The same measure, in the same setting: for `CC(=O)n1cc(C(=O)Nc2cc(C(=O)O)ccc2NC2CCOCC2)c2ccccc21` the value was 8.5 µM; for `CC(=O)n1cc(C(=O)Nc2cc(C(=O)O)cc(-c3ccccc3)c2)c2ccccc21`, 1.86 µM.
Turning to `Nc1c(N2CCCC2)c2ccccc2oc1=O`, the inhibition in test [2] came out at 69%; in test [3] it was 47%; in test [4], 52%. The molecule further registered an IC50 in test [1] of more than 50 µM.
`CC(=O)n1cc(C(=O)NCCN2CCNC2=O)c2ccccc21` registered a half-inhibitory concentration (IC50) in test [1] of 32.6 µM.
Still for that read-out and setting: then `CC(=O)n1cc(C(=O)Nc2cc(CCc3ccccc3)cc(C(=O)O)c2)c2ccccc21`, with 1.96 µM; and `COc1ccc2c(c1)c(C(=O)Nc1cc(C(=O)O)cc(-c3ccc4c(cnn4C)c3)c1)cn2C(C)=O`, with 0.29 µM.
Turning to `COC(=O)[C@H]1CCCN(C(=O)Cn2cc(C(C)=O)c3ccccc32)C1`, in test [1], the IC50 worked out at 7.09 µM.
Same read-out and setting: for `CC(=O)n1cc(C(=O)Nc2cc(C(=O)O)cc(C3CCCC3)c2)c2ccccc21` the value was 2.99 µM; for `CC(=O)n1cc(C(=O)Nc2cc(C(=O)O)ccc2NCC2CCOCC2)c2ccccc21`, 6.36 µM.
Same read-out and setting: for `COC(=O)c1cccc(NC(=O)c2cn(C(C)=O)c3ccccc23)c1` the value was 3.39 µM.
In the case of `CC(=O)n1ncc2c([N+](=O)[O-])cc([N+](=O)[O-])cc21`, the inhibition in test [2] was 97%; in test [3] it was 98%; in test [4], 98%. The molecule further registered an IC50 in test [1] of 9.11 µM.
In test [1], `CC(=O)c1nn(-c2ccccc2)c2c1CCCC2` had an IC50 of more than 50 µM. Further, the inhibition in test [3] is -2%; in test [4], 6%.
For `CCCCNc1ccc(C(=O)O)cc1NC(=O)c1cn(C(C)=O)c2ccccc12`, in test [1], the IC50 was more than 50 µM.
With `CC(=O)c1cn(CCC(=O)O)c2ccccc12`, the inhibition in test [2] came out at 21%; in test [3] it was 34%; in test [4] it was 39%. Further, the IC50 in test [1] amounted to 16.7 µM.
The molecule `CCCNc1ccc(C(=O)O)cc1NC(=O)c1cn(C(C)=O)c2ccccc12` displayed an IC50 in test [1] of 6.56 µM.
